# According to US20220338473A1, “USE OF BENZYL ALCOHOL AS A HERBICIDE” (INNOVI, priority 2019, published 2022):
# How the values were obtained:
# Grass = test: Non-selective activity on herbaceous plants (spraying, potted); assay type: in vivo, grass of the ryegrass type; conditions: 4 g benzyl alcohol (200 L/Ha) in 8 g total (400 L/Ha)
# Experimental: (§1) The non-selective character of benzyl alcohol was studied on 3 common varieties of herbaceous plants, two dicotyledons (dandelions and clover) and a monocotyledon (grass).
# The grass of the ryegrass type makes it possible to confirm that the spectrum of action of benzyl alcohol is broad.
# (§2) The assays were carried out on potted plants. The application of the product is carried out with a trigger spray bottle which makes it possible to spray 1 g of product per spraying, as microdroplets.
# (§3) The treated plants are sprinkled with different quantities of water comprising different quantities of pure benzyl alcohol (PanReac AppliChem—ITW Reagents). The untreated (control) plants are sprinkled with the same total quantity of water only.
# (§4) The plants are observed at the following times: T0, 6 h, 24 h, 48 h, 72 h, 96 h. The collapsing of the plant, the colour intensity and the diameter of the plant were measured as indicated in Example 1.
# Petunia = test: Inter-row cultivation herbicide activity: effect on untreated adjacent plant; assay type: in vivo; design: key: yes: the dose and the mode of use when use in intercrop cultivation is prescribed; indicates that it is not
# Experimental: Pure benzyl alcohol was used (PanReac AppliChem—ITW Reagents).
# Two plants (Petunia) were planted with a spacing of 20 cm. Only one of the plants is treated, either in a foliar manner or by sprinkling in different concentrations (10 L/Ha, 20 L/Ha, 50 L/Ha, 100 L/Ha, 200 L/Ha, 300 L/Ha, […], 500 L/Ha, 600 L/Ha).
# [1] = tested on: Chenopodium album (CHEAL); test: Systemic action through contact with the leaves: metabolic activity by epifluorescence microscopy; assay type: in vivo; conditions: 20 L/ha, control group 5
# Experimental: Chenopodium album (CHEAL) seeds are sown in Petri dishes in vermiculite moistened with a 0.2% solution of […]. The dishes are incubated in a climatic chamber at 15° C./20° C. night/day and 14 h photoperiod up to the stage of emergence of the cotyledons. The plantlets are then transplanted, at a rate of 6 plants per pot and 5 pots in each of the groups (treated group and control group), in a mixture of agricultural earth:vermiculite (50:50).
# The plantlets are cultivated under the same environmental conditions as previously up to the stage BBCH12-14.
# The plants are treated with benzyl alcohol at the stage BBCH12-14 with a dose of 20 L/ha benzyl alcohol with 660 g/I water, i.e. 13.2 kg benzyl alcohol/ha.
# The product is applied in a volume corresponding to 300 L/ha using a spraying bench equipped with agricultural nozzles (Turbo Teejet TTII0015).
# After treatment, the plants are returned to cultivation in a climatic chamber at 15° C./20° C. night/day and 14 h photoperiod.
# A control group is not treated and only receives water.
# […] observations were carried out by epifluorescence microscopy on the leaves and the roots of the treated plants and the control plants, 24 h and 7 days after treatment on the leaves.
# The results observed on the epifluorescence microscopy images are reported in Tables 11 and 12 below, in which a mark of 0 to 5 is attributed depending on the intensity and the surface area of the fluorescence observed, where 0=no metabolic activity, and 5=complete metabolic activity.
# Before uprooting and epifluorescence microscopy analysis, the treated plants were divided into 2 groups: • Group 1: plants not showing or showing few symptoms of drying on the treated area (leaf) • Group 2: plants having a dry leaf on the treated area (leaf)
# Dandelion seeds = test: Preventative activity (anti-germination), seeds on agar in Petri dish; assay type: in vivo; conditions: 0.35 g sprayed (benzyl alcohol pure, 700 L/Ha; glyphosate diluted at 0.5%)
# Dandelion = test: Non-selective activity on herbaceous plants (spraying, potted); assay type: in vivo; conditions: 4 g benzyl alcohol (200 L/Ha) in 8 g total (400 L/Ha)
# Experimental: as §1, §2, §3, §4
# Clover = test: as above; assay type: in vivo; conditions: 4 g benzyl alcohol (200 L/Ha) in 8 g total (400 L/Ha)
# Experimental: as §1, §2, §3, §4
# Maize seeds = test: Preventative activity (anti-germination), seeds on agar in Petri dish; assay type: in vivo; conditions: 0.35 g sprayed (benzyl alcohol pure, 700 L/Ha; glyphosate diluted at 0.5%)
# Experimental: (§5) The assays were carried out on seeds sown on a Petri dish with respectively a control mode, an assay with benzyl alcohol and an assay with glyphosate herbicide (Gallup® super 360, Barclay).
# (§6) The application of the product is carried out with a trigger spray bottle which makes it possible to spray 0.35 g of product per spraying, as microdroplets.
# (§7) Seeds are placed on an agar gel in Petri dishes. 16 barley seeds, 24 rapeseed seeds, 18 wheat seeds, 10 maize seeds, 10 soybean seeds are positioned for each test.
# (§8) The seeds are sprinkled either with 0.35 g water (equivalent 700 L/Ha) including 0.35 g pure benzyl alcohol (PanReac AppliChem—ITW Reagents) (equivalent 700 L/Ha pure benzyl alcohol), or with 0.35 g water for the control, or with 0.35 g glyphosate diluted at 0.5% for the glyphosate test.
# (§9) The plants are observed at 0 and 11 days. The percentage of germination is the percentage of germinated seeds evaluated after 11 days.
# Wheat seeds = test: as above; assay type: in vivo; conditions: 0.35 g sprayed (benzyl alcohol pure, 700 L/Ha; glyphosate diluted at 0.5%)
# Experimental: as §5, §6, §7, §8, §9
# Soybean seeds = test: as above; assay type: in vivo; conditions: 0.35 g sprayed (benzyl alcohol pure, 700 L/Ha; glyphosate diluted at 0.5%)
# Experimental: as §5, §6, §7, §8, §9
# Barley seeds = test: as above; assay type: in vivo; conditions: 0.35 g sprayed (benzyl alcohol pure, 700 L/Ha; glyphosate diluted at 0.5%)
# Experimental: as §5, §6, §7, §8, §9
# Rapeseed seeds = test: as above; assay type: in vivo; conditions: 0.35 g sprayed (benzyl alcohol pure, 700 L/Ha; glyphosate diluted at 0.5%)
# Experimental: as §5, §6, §7, §8, §9
# [2] = 24 h after leaf spraying, Group 1 (no or few symptoms of drying)
# [3] = 24 h after leaf spraying, Group 2 (dry leaf on treated area)
# [4] = 7 days after leaf spraying, Group 1 (no or few symptoms of drying)
# [5] = 7 days after leaf spraying, Group 2 (dry leaf on treated area)
compound,measurement,setting,value
OCc1ccccc1 [benzyl alcohol],Collapsing (score and time): time to pass from score 5 (T0) to score 1,Grass,1 to 48 h
same,Colour intensity (score and time): time to pass from score 5 (T0) to score 1,Grass,1 to 24 h
same,Diameter (score and time): time to pass from score 5 (T0) to score 1,Grass,1 to 48 h
same,Inter-row use possible (untreated plant at 20 cm does not collapse),"Petunia; foliar, 50 L/Ha",no
same,Inter-row use possible (untreated plant at 20 cm does not collapse),"Petunia; foliar, 100 L/Ha",no
same,Inter-row use possible (untreated plant at 20 cm does not collapse),"Petunia; foliar, 200 L/Ha",no
same,Inter-row use possible (untreated plant at 20 cm does not collapse),"Petunia; foliar, less than 50 L/Ha",no
same,Inter-row use possible (untreated plant at 20 cm does not collapse),"Petunia; sprinkling, 50 L/Ha",yes
same,Inter-row use possible (untreated plant at 20 cm does not collapse),"Petunia; sprinkling, 100 L/Ha",yes
same,Inter-row use possible (untreated plant at 20 cm does not collapse),"Petunia; sprinkling, 200 L/Ha",no
same,Inter-row use possible (untreated plant at 20 cm does not collapse),"Petunia; sprinkling, less than 50 L/Ha",yes
same,"Metabolic activity on the leaves (mark 0 to 5; 0=no, 5=complete metabolic activity)",[1]; [2],1
same,"Metabolic activity on the roots (mark 0 to 5; 0=no, 5=complete metabolic activity)",[1]; [2],2
same,"Metabolic activity on the leaves (mark 0 to 5; 0=no, 5=complete metabolic activity)",[1]; [3],1
same,"Metabolic activity on the roots (mark 0 to 5; 0=no, 5=complete metabolic activity)",[1]; [3],2.5
same,"Metabolic activity on the leaves (mark 0 to 5; 0=no, 5=complete metabolic activity)",[1]; [4],0.5
same,"Metabolic activity on the roots (mark 0 to 5; 0=no, 5=complete metabolic activity)",[1]; [4],1.5
same,"Metabolic activity on the leaves (mark 0 to 5; 0=no, 5=complete metabolic activity)",[1]; [5],0
same,"Metabolic activity on the roots (mark 0 to 5; 0=no, 5=complete metabolic activity)",[1]; [5],2
same,Percentage of germination at 11 days,Dandelion seeds,0%
same,Collapsing (score and time): time to pass from score 5 (T0) to score 1,Dandelion,1 to 48 h
same,Colour intensity (score and time): time to pass from score 5 (T0) to score 1,Dandelion,1 to 24 h
same,Diameter (score and time): time to pass from score 5 (T0) to score 1,Dandelion,1 to 48 h
same,Collapsing (score and time): time to pass from score 5 (T0) to score 1,Clover,1 to 48 h
same,Colour intensity (score and time): time to pass from score 5 (T0) to score 1,Clover,1 to 24 h
same,Diameter (score and time): time to pass from score 5 (T0) to score 1,Clover,1 to 48 h
same,Percentage of germination at 11 days,Maize seeds,0%
same,Percentage of germination at 11 days,Wheat seeds,0%
same,Percentage of germination at 11 days,Soybean seeds,0%
same,Percentage of germination at 11 days,Barley seeds,0%
same,Percentage of germination at 11 days,Rapeseed seeds,0%
